# Read-outs that look alike come from different tables or passages of the source.
# What was measured:
# DAT = details: read-out: Half-maximal inhibitory concentration, IC50, cited from earlier work
# [1] = NeuroPK parameters by Combinatory Mapping Approach; type: in vivo; details: rat; for concentration at 4 h / Kp uu at 4 h: Sprague-Dawley, intravenous, 20 mg/kg; for concentration at 4 h: brain interstitial fluid, steady state, Equation (6), read-out: Unbound-drug concentration in brain interstitial fluid, Cu,brainISF; for Kp uu at 4 h: extent of BBB transport, Equation (4), read-out: Unbound brain-to-plasma concentration ratio, Kp,uu,brain; for Kp uu: brain slices (Vu,brain) and brain homogenate (fu,brain), Equation (5), Vu,brain·fu,brain, read-out: Unbound intracellular-to-extracellular (interstitial) concentration ratio, Kp,uu,cell; for Kp,uu at the blood–spinal cord barrier (BSCB): spinal-cord-to-plasma unbound ratio
# Excerpt: The neuropharmacokinetic (neuroPK) parameters of the novel DAT inhibitor as well as modafinil have so been far assessed based on the total drug concentration in the plasma and the entire brain, usually at a single time point in a non-dedicated PK study. Yet, the total brain-to-plasma concentration ratio (Kp,brain) is just one of the neuroPK parameters with a limited use for characterization of the extent of BBB transport. According to the Free Drug Theory, the concentration of unbound (free) drugs, particularly at a site of action like the brain, governs the pharmacological effect(s), emphasizing the significance of unbound drug concentrations in distribution processes. To this end, the unbound brain-to-plasma concentration ratio, Kp,uu,brain, is the key neuroPK parameter to obtain for the assessment of the extent of BBB transport. With the Combinatory Mapping Approach (CMA), evaluation of the neuroPK parameters of unbound drugs can be obtained in a more high-throughput mode, which makes it useful for CNS drug discovery. The CMA employs several in vivo and in vitro methods to provide a comprehensive assessment of drug properties concerning BBB transport and intra-brain distribution. In an in vivo neuroPK study, the total concentrations of drugs in the brain and plasma are determined at the steady state, which is pivotal for assessing Kp,brain (Figure 1(A1)). In parallel, in vitro investigations involve the determination of unbound fractions of drugs in the plasma (fu,plasma) and brain tissue binding properties (fu,brain) using equilibrium dialysis and the brain slice method (Vu,brain) (Figure 1(B1,C1)). Finally, a combination of these acquired parameters enables the estimation of Kp,uu,brain and the unbound drug cell partitioning coefficient (Kp,uu,cell). Kp,uu,brain represents the ratio of brain interstitial fluid (ISF) to the plasma unbound drug concentrations at the steady state, providing a quantitative description of the net BBB drug transport. This parameter relies on three compound-specific parameters, Kp,brain, Vu,brain, and fu,plasma. […] Kp,uu,cell represents the steady-state ratio of intracellular to extracellular unbound drug concentrations, describing the drug transport across the cellular membrane.
# The unbound brain-to-plasma concentration ratio, Kp,uu,brain, was calculated by using the three compound-specific parameters: Kp,brain, Vu,brain, and fu,plasma:(4) Kp,uu,brain=Kp,brain/Vu,brain·fu,plasma
# The unbound intracellular-to-extracellular (interstitial) concentration ratio, Kp,uu,cell, was estimated by using the Vu,brain and fu,brain parameters:(5) Kp,uu,cell=Vu,brain·fu,brain
# Due to the multiparameter character of Kp,uu,brain and Kp,uu,cell assessment (Equations (4) and (5)), the estimation of variability around the mean values was calculated using an error propagation method as described in Loryan et al. (2017).
# The Kp,uu,brain values were further used to calculate the unbound drug concentration in the brain interstitial fluid Cu,brain,ISF, according to Loryan et al. (2014):(6) Cu,brain,ISF=Kp,uu,brain·Cu,plasma
# [2] = test system: cerebEND in vitro model of the blood–brain barrier; details: 100 µM CE-123 and modafinil, Transwell cerebEND, blank inserts deducted; cited from earlier work
# [3] = In vitro metabolic stability in human liver microsomes; type: in vitro ADME; details: for % of the parent drug remaining / half-life at 1 µM / microsomal CLint at 1 µM: 1 µM; for % of the parent drug remaining: 60 min incubation; for half-life at 1 µM / microsomal CLint at 1 µM: human, human liver microsomes, pH 7.4; for half-life at 1 µM: 0.5 mg/mL protein, read-out: half-life (t1/2); for microsomal CLint at 1 µM: read-out: intrinsic clearance (CLint)
# Method: An in vitro metabolism assay to study the phase I metabolism in the HLMs was in-house-developed. Optimization of the protocol included the test compound concentration (1, 5, 10 m and 50 µM) and extraction solvents (ACN and MeOH). […] The metabolic assay was initiated by the addition of 10 mM NADPH to the reaction solution and terminated after 0, 2.5, 5, 15, 30, 45, and 60 min via the addition of 200 µL of ice-cold MeOH containing the IS solution. The samples were than vortexed and spun for 15 min (14,000× g, 4 °C). The supernatant was collected, evaporated to dryness using the Concentrator plus (Eppendorf), and reconstituted with 100 µL of ACN/0.1% FA in water 10:90 (v:v). To ensure that the assay was performing adequately, the incubation of 1 µM diazepam at the same assay conditions as described was conducted, and the formation of its metabolites temazepam and nordazepam was monitored. A negative control included the absence of NADPH, the test compound, or HLMs during assay. […] The metabolic stability curves of the tested compounds were established by plotting the incubation time against the natural logarithm of the % parent drug remaining. The slope (k) of the linear part was utilized for the in vitro half-life (t1/2, min) as ln2/k. The V (µL/mg) was calculated as the volume of the reaction solution (100 µL) divided by the protein amount in the incubation (0.5 mg). The protein amount was predetermined by the supplier and the content was checked by using a Pierce™ BCA Protein Assay Kit (Thermo Fisher Scientific, Vienna, Austria) for each freshly opened tube. The intrinsic clearance (CLint, µL/min/mg) was calculated according to the following equation:(7) CLint=0.693/t1/2·V […]
# human DAT = details: cell lines expressing human DAT; read-out: Inhibitory constant, Ki; cited from earlier work
# [4] = Equilibrium dialysis, brain tissue binding; type: in vitro ADME, rat; details: for fraction unbound at 5 h, 10 µM: whole brain homogenate (1:9 in PBS), rat brain homogenate 1:9 in PBS pH 7.4, 10 µM, corrected for dilution, read-out: Fraction unbound in brain homogenate, fu,brain
# Method: (§1) A Teflon 96-well plate (model HTD96b, HTDialysis LLC, Gales Ferry, CT, USA) was used in all tissue-binding experiments. Th evaluation of PPB was determined according to van Liempd et al. (2011) and BTB according to the previously published protocols. […] The whole brain tissue from three rats was individually homogenized in 9 volumes of phosphate-buffered saline (PBS), pH 7.4. […] Then, 100 µL of spiked plasma or brain tissue homogenate in triplicate was dialyzed against an equal volume of PBS, pH 7.4, for 5 h at 37 °C and 200 rpm. Furthermore, 50 µL was taken from both sides of the membrane at the end of incubation. The unbound fraction of the compounds in the plasma (fu,plasma) or in the diluted (D) brain homogenate (fu,hD) was calculated according to the following equation:(1) fu,plasma or fu,hD=Cbuffer/Ctissue where Cbuffer represents the concentration of the compound measured in the buffer and Ctissue is the concentration measured in the plasma or brain tissue homogenate. Due to dilution, fu,hD is usually higher than the actual fu,brain. Thus, fu,hD was corrected for the dilution factor (D), which is in this case 10 times. (2) fu,brain=fu,hD/D+fu,hD−D·fu,hD
# [5] = Equilibrium dialysis, plasma protein binding; type: in vitro ADME, rat; details: for free (unbound) in plasma / Fraction unbound in plasma, fu,plasma: rat plasma; for Fraction unbound in plasma, fu,plasma / fraction unbound at 5 h, 10 µM: 10 µM, 5 h, 37 °C, plasma with 10% DMF; for fraction unbound at 5 h, 10 µM: rat, undiluted rat plasma containing 10% DMF, pH 7.4, rat plasma, read-out: Fraction unbound in plasma, fu,plasma
# Method: as §1
Compound,IC50 (DAT; ref Kristofova et al. 2018 [36]),concentration at 4 h [1],Kp uu at 4 h ([1]; brain),Kp uu at 4 h [1],"fold difference in Kp,uu,brain, S-CE-123 vs R-modafinil [1]",Kp uu [1],"Kp,uu at the blood–spinal cord barrier (BSCB) [1]",Pe (permeability coefficient) [2],fold faster metabolism compared to R-modafinil ([3]; HLMs),% of the parent drug remaining ([3]; HLMs),half-life at 1 µM ([3]; HLMs),microsomal CLint at 1 µM ([3]; HLMs),Ki (human DAT),"brain tissue binding capacity, fold higher compared to R-modafinil ([4]; rat brain homogenate)","fraction unbound at 5 h, 10 µM [4]",free (unbound) in plasma [5],"Fraction unbound in plasma, fu,plasma [5]","fraction unbound at 5 h, 10 µM [5]",IC50 (DAT; ref Loland et al. 2012 [27]),"metabolized ([3]; HLMs, 5, 10 and 50 µM)"
[O-][S@@+](Cc1cncs1)C(c1ccccc1)c1ccccc1 [S-CE-123],4.6 µM,386 nM,0.5,0.46 ± 0.032,ca. 5 fold,0.18 ± 0.09,closer to unity,50 ×10⁻⁶ cm/s,9.3 fold,35%,0.65 h,3.6 µL/min/mg,0.61 µM,6.6 fold,0.035 ± 0.012,25%,0.252 ± 0.023 unitless,0.25,,
"NC(=O)C[S@@+]([O-])C(c1ccccc1)c1ccccc1 [R-modafinil, reference compound]",,282 nM,0.1,0.097 ± 0.034,,0.85 ± 0.6,dominating net active efflux,38.3 ×10⁻⁶ cm/s,,90%,6.07 h,[…],,,0.23 ± 0.1,80%,0.797 ± 0.15 unitless,0.79,[…],≤ 10%

# — paper PMC10707468, “Pharmacokinetics of Novel Dopamine Transporter Inhibitor CE-123 and Modafinil with a Focus on Central Nervous System Distribution” (International Journal of Molecular Sciences, 2023)
